Patent publication US9814233B2, “Composition comprising a pesticide, a surfactant and an alkoxylate of 2-propyheptylamine” (BASF SE, priority 2011, dated 2017)

What was measured:
[1] = test system: winter wheat (cultivar Cubus); experiment: Greenhouse test of herbicidal activity of glyphosate spray mixtures on winter wheat; type: in vivo; details: after 21 days
Description: (§1) For the greenhouse tests, winter wheat (cultivar Cubus) and soybean (cultivar Oxford) were sown or potted in loamy sandy soil to a depth of 1-2 cm. When the plants had reached a growth height of 10 to 25 cm (i.e., around 10 to 21 days after sowing), the spray mixtures were applied to the plants in a spraying cabin.
(§2) A concentrated formulation comprising glyphosate isopropylammonium in solution in water comprising the surfactants stated and amine alkoxylate A from Example 1 was diluted with deionized water and applied at a water application rate of 375 l/ha (140 g or 280 g of glyphosate/ha). The temperatures in the experimental period were between 18-35° C. During this time, the experimental plants received optimum watering, with nutrients being supplied via the water used for watering.
(§3) The herbicidal activity was evaluated by awarding scores to the treated plants (four each time) in comparison to the untreated control plants. The evaluation scale ranges from 0% to 100% activity. 100% activity means the complete death at least of those parts of the plant that are above ground.

[2] = test system: soybean (cultivar Oxford); experiment: Greenhouse test of herbicidal activity of glyphosate spray mixtures on soybean; type: in vivo; details: after 21 days
Description: as §1, §2, §3

[3] = 140 g/ha glyphosate, amount 300 g/ha
[4] = 280 g/ha glyphosate, amount 300 g/ha
[5] = 140 g/ha glyphosate, without amine alkoxylate/surfactant
[6] = 280 g/ha glyphosate, without amine alkoxylate/surfactant

| Compound | Winter wheat efficacy [1, 3] [%] | Winter wheat efficacy [1, 4] [%] | Soybean efficacy [2, 3] [%] | Soybean efficacy [2, 4] [%] | Winter wheat efficacy [1, 5] [%] | Winter wheat efficacy [1, 6] [%] | Soybean efficacy [2, 5] [%] | Soybean efficacy [2, 6] [%] |
| --- | --- | --- | --- | --- | --- | --- | --- | --- |
| C10-13-alkylbenzenesulfonate, free acid [Surfactant A] | 84 | 90 | 64 | 71 | – | – | – | – |
| CC(C)N.O=C(O)CNCP(=O)(O)O [Without, glyphosate isopropylammonium] | – | – | – | – | 53 | 68 | 10 | 10 |
